Data as given in US20250339514A1, “SINGLE-AND MULTI-EPITOPE PEPTIDE AND MRNA VACCINES TO GENERATE TOLEROGENIC EFFECTS FOR ALLERGIC AND AUTOIMMUNE DISEASE BY TARGETING LIVER SINUSOIDAL ENDOTHELIAL CELLS” (The Regents of the University of California, priority 2022, published 2025).
Read-outs that look alike come from different tables or passages of the source.

Experiments:
[1] = Cargo loading and ApoBP ligand content by microBCA / BCA assay; format: physicochemical
Protocol: The relative abundance of mannan incorporation was assessed by calculating the difference between the total amount offered for conjugation versus the amount recovered in the supernatant. […] The abundance of peptide conjugation was assessed by a microBCA assay and a nanodrop method.
The purified NPs were fully characterized using dynamic light scattering to determine particle size and surface charge, and scanning electron microscopy was performed to visualize particle morphology. The microBCA assay was used to detect OVA loading capacity and the conjugation efficiency of the peptide ligand, whereas the phenol-sulfuric acid method was used to determine mannan concentration. The endotoxin level was verified by a chromogenic LAL assay.
Particles were separated and washed by centrifugation (15,000 g, 10 min). Hydrodynamic size and surface potential were measured using dynamic light scattering (DLS), with visualization of the particle size and morphology by scanning electron microscopy (SEM). […] In addition to loading of T-cell epitopes, we also selected an IgE binding peptide for encapsulation, in addition to the synthesis of nanoparticles that incorporate CPPE as well as a purified Ara h2 protein (Indoor Biotechnologies). The CPPE was prepared as described in the Online Repository section. Allergen loading capacity, including for CPPE, purified Ara h2 and its epitopes, as well as the conjugation efficacy of the ApoB ligand was determined by bicinchoninic acid assay (BCA assay).

[2] = ionizable lipid; cited from earlier work
[3] = tested on: factor VII; conditions: cited from earlier work
[4] = tested on: human T-cell lines; conditions: T-cell lines isolated from 10 different donors; cited from earlier work
[5] = tested on: C57BL/6J mice; conditions: inhalation of low peptide concentrations, naïve C57BL/6J mice; cited from earlier work
[6] = tested on: lupus-prone mice; conditions: subcutaneous every 2 weeks; cited from earlier work
[7] = tested on: I-Ek; conditions: I-Ek; cited from earlier work
[8] = tested on: T cell responses; set-up: Immunopositivity of predicted CTL epitope / Immunopositivity of MHC II peptide: scale not given here; conditions: cited from earlier work; for Immunopositivity of predicted CTL epitope: class I MHC peptides, Table 59
[9] = tested on: class I MHC K, D, and L loci; conditions: cited from earlier work; for BIM score predicted using the BIMAS program / SYF score predicted using the SYFPEITHI program: H2 locus K
[10] = peptide in PLGA nanoparticles, Table 66

1 (LALFLLAAHASARQQ; listed as Arachis hypogaea) [compound 1]
Loading Capacity ([1]; epitope in PLGA NPs, Table 68): 1.62 + 2.11 μg/mg

1,2-dioleoyl-3-dimethylaminopropane [DODAP]
pKa [2]: 6.6

2 (LRNLPQQCGLRAPQR; listed as Arachis hypogaea) [compound 2]
Loading Capacity ([1]; epitope in PLGA NPs, Table 68): 3.22 ± 1.96 µg/mg

3 (MAKLTILVALALFLL; listed as Arachis hypogaea) [compound 3]
Loading Capacity ([1]; epitope in PLGA NPs, Table 68): 1.31 + 1.72 μg/mg

4 (SYGRDPYSPSQDPYS; listed as Arachis hypogaea) [compound 4]
Loading Capacity ([1]; epitope in PLGA NPs, Table 68): 8.68 ± 2.04 µg/mg

CCCCC/C=C\C/C=C\CCCCCCCCC1(CCCCCCCC/C=C\C/C=C\CCCCC)OCC(CN(C)C)O1 (centres unmarked) [DLin-K-DMA, 2,2-dilinoleyl-4-dimethylaminomethyl-[1,3]-dioxolane]
potency on the in vivo silencing of factor VII ([3]; higher than the other tested lipids): 2.5 fold

CCCCC/C=C\C/C=C\CCCCCCCCC1(CCCCCCCC/C=C\C/C=C\CCCCC)OCC(CCN(C)C)O1 (centres unmarked) [DLin-KC2-DMA, 2,2-dilinoleyl-4-(2-dimethylaminoethyl)-[1,3]-dioxolane]
activity ([3]; higher activity over DLin-K-DMA): 4 fold

CCCCC/C=C\C/C=C\CCCCCCCCC(CCCCCCCC/C=C\C/C=C\CCCCC)OC(=O)CCCN(C)C [DLin-MC3-DMA, (6Z,9Z,28Z,31Z)-heptatriaconta-6,9,28,31-tetraen-19-yl-4-(dimethylamino) butanoate]
pKa [2]: 6.44
potency ([3]; higher potency than DLin-KC2-DMA): 10 fold

CCCCC/C=C\C/C=C\CCCCCCCCC(O)(CCCCCCCC/C=C\C/C=C\CCCCC)CCCCN(C)C [YSK012-C4]
pKa [2]: 8.0

#1 (LALFLLAAHASARQQ; listed as Arachis hypogaea)
Loading Capacity [1, 10]: 1.62 + 2.11

#2 (LRNLPQQCGLRAPQR; listed as Arachis hypogaea)
Loading Capacity [1, 10]: 3.22 + 1.96

#3 (MAKLTILVALALFLL; listed as Arachis hypogaea)
Loading Capacity [1, 10]: 1.31 + 1.72

#4 (SYGRDPYSPSQDPYS; listed as Arachis hypogaea)
Loading Capacity [1, 10]: 8.68 + 2.04

AH91-110: adalimumab HCDR3 peptide
recognition by T-cell lines [4]: recognized by the majority of T-cell lines

AH96-110: adalimumab HCDR3 peptide (CAKVSYLSTASSLDY; listed as Homo sapiens)
recognition by T-cell lines [4]: recognized by the majority of T-cell lines

Der p1 T-cell epitope (residues 111-139): major Der p1 T-cell epitope peptide (Hoyne et al.) (FGISNYCQIYPPNVNKIREALAQTHSAIA; UniProt P08176 209-237, looked up, fragment)
tolerance induction [5]: capable of inducing tolerance

H4 aa 71-94: nucleosomal histone H4 peptide autoepitope
efficacy of autoepitope [6]: most effective autoepitope

LEPLGLVEEGAKTAP [AAV8-VP3 aa 126-140, reference compound]
SYFPEITHI score [7]: 28
Th1 response ([8]; C3H mice): strong H2k MHC II-restricted Th1 response

NSYVTPICIADKEYT [hF.IX aa 328-342, reference compound]
SYFPEITHI score [7]: 24

QPARKRLNF [AAV8 capsid aa 166-174, reference compound]
predicted binding to the H2-Ld locus ([9]; SYFPEITHI and BIMAS): high-scoring

QVSVEIEWELQKENS [AAV2-VP3 475-489, reference compound]
SYFPEITHI score [7]: 22
Th2 response ([8]; C3H mice): strong Th2 response

SEQ ID NO: 1115 (QYGSVSTNL; listed as Arachis hypogaea)
BIM score predicted using the BIMAS program ([9]; haplotype d (9-mer)): 4147
SYF score predicted using the SYFPEITHI program ([9]; haplotype d (9-mer)): 27
Immunopositivity of predicted CTL epitope [8]: QYGSVSTNL^c

SEQ ID NO: 1121 (LDRLMNPLI; listed as Arachis hypogaea)
SYF score predicted using the SYFPEITHI program ([9]; haplotype k (9-mer)): 20
Immunopositivity of predicted CTL epitope [8]: LDRLMNPLI^e

SEQ ID NO: 1122 (EEIRTTNPV; listed as Arachis hypogaea)
BIM score predicted using the BIMAS program ([9]; haplotype k (9-mer)): 100
SYF score predicted using the SYFPEITHI program ([9]; haplotype k (9-mer)): 20
Immunopositivity of predicted CTL epitope [8]: EEIRTTNPY^e
